# What was measured:
# CCK-B receptor = target: T1, CCK-B receptor (Cavia porcellus, UniProt H0VZC5); assay: CCK-receptor binding, CCK-B (guinea pig cortex assay); conditions: read-out: pKi CCK-B (converted)
# T1 construct: CCK-B receptor (guinea pig cortex assay); from tissue; host or cells: guinea pig cortex
# T1 sequence (H0VZC5 1-426): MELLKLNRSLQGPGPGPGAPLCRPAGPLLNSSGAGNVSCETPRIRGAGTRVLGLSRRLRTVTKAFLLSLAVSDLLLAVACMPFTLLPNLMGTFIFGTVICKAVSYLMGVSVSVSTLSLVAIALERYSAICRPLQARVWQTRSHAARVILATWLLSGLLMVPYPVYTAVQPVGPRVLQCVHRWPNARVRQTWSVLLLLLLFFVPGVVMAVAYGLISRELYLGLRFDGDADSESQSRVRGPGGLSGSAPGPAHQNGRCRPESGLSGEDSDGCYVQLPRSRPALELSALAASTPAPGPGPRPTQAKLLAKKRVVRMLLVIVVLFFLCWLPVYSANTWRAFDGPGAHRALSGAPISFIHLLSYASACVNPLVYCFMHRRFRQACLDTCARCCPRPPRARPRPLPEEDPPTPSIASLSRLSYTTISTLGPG
# Procedure: (§1) The greater affinity of the compounds of the invention for the CCK-B receptor over the CCK-A receptor has also been established using the CCK receptor binding assays described by G Dal Forno et al., J. Pharmcol. Exp & Ther. 261, 1056-1063, 1992.
# (§2) The binding affinity of the compounds of the invention for the CCK-A receptor (Pancreas Assay) and CCK-B receptor (guinea pig cortex assay) was determined using the procedure of G Dal Forno et al J. Pharmacol. Exp & Ther. 261--1056-1063. The pKi values determined with respresentative compounds of invention were as follows: […]
# CCK-A receptor = assay: CCK-receptor binding, CCK-A (Pancreas Assay)
# Procedure: as §1, §2
SMILES,Ki (CCK-B receptor),pKi CCK-A (CCK-A receptor)
"O=CNc1cccc(NC(=O)NC2C(=O)N(CC34CC5CC(CC(C5)C3)C4)c3ccccc3N(c3ccccc3)C2=O)c1 (racemic) [Example 6, N-[1-(1-Adamantylmethyl)-2,4-dioxo-5-phenyl-2,3,4,5-tetrahydro-1H-1,5-benzodiazepin-3-yl]-N'-(3-formylaminophenyl)urea]",0.955 nM,5.95
"CC(=O)Nc1cccc(NC(=O)NC2C(=O)N(CC34CC5CC(CC(C5)C3)C4)c3ccccc3N(c3ccccc3)C2=O)c1 (racemic) [Example 7, N-[1-(1-Adamantylmethyl)-2,4-dioxo-5-phenyl-2,3,4,5-tetrahydro-1H-1,5-benzodiazepin-3-yl]-N'-(3-acetamidophenyl)urea]",1.32 nM,5.82
"O=C(Nc1cccc(CN2CCOCC2)c1)NC1C(=O)N(CC23CC4CC(CC(C4)C2)C3)c2ccccc2N(c2ccccc2)C1=O (single isomer, unassigned; (+)) [Example 1, (+)N-[1-(1-Adamantylmethyl)-2,4-dioxo-5-phenyl-2,3,4,5-tetrahydro-1H-1,5-benzodiazepin-3-yl]-N'-(3-(4-morpholinomethyl)phenyl]-urea]",,4.70
"CCOC(=O)CCCOc1ccc(NC(=O)NC2C(=O)N(CC34CC5CC(CC(C5)C3)C4)c3ccccc3N(c3ccccc3)C2=O)cc1 (single isomer, unassigned; (+)) [Example 2, (+)N-[1-(1-Adamantylmethyl)-2,4-dioxo-5-phenyl-2,3,4,5-tetrahydro-1H-1,5-benzodiazepin-3yl]-N'-[4-(3-(ethoxycarbonyl)propyl-1-oxo)phenyl]urea]",5.25 nM,< 5.0
"O=C(O)CCCOc1ccc(NC(=O)NC2C(=O)N(CC34CC5CC(CC(C5)C3)C4)c3ccccc3N(c3ccccc3)C2=O)cc1 (single isomer, unassigned; (+)) [Example 3, (+)N-[1-(1-Adamantylmethyl)-2,4-dioxo-5-phenyl-2,3,4,5-tetrahydro-1H-1,5benzodiazepin-3-yl]-N'-[4-(4-oxobutanoic acid)phenyl]urea]",3.8 nM,< 5.0
"O=C(Nc1cccc(C(=O)OCCN2CCOCC2)c1)NC1C(=O)N(CC23CC4CC(CC(C4)C2)C3)c2ccccc2N(c2ccccc2)C1=O (single isomer, unassigned; (+)) [Example 4, (+)N-[1-(1-Adamantylmethyl)-2,4-dioxo-5-phenyl-2,3,4,5-tetrahydro-1H-5-benzodiazepin-3-yl]-N'-[3-[2-(4-Morpholino)ethoxycarbonyl]phenyl]urea]",0.562 nM,6.47
"O=C(Nc1cccc(NCC(O)CO)c1)NC1C(=O)N(CC23CC4CC(CC(C4)C2)C3)c2ccccc2N(c2ccccc2)C1=O (single isomer, unassigned; (+)) [Example 5, (+)N-[1-(1-Adamantylmethyl)-2,4-dioxo-5-phenyl-2,3,4,5-tetrahydro-1H-1,5-benzodiazepin-3-yl]N'-[3-(2,3-dihydroxypropylamino)phenyl]urea]",0.676 nM,5.13

# — patent US5733867A, “1, 5-benzodiazepine derivatives” (Glaxo Wellcome SpA, priority 1993, dated 1998)
